Measured values taken from US20170105953A1, “METHOD FOR SUPPRESSING DIABETES AND/OR HEPATIC LIPIDS USING TORMENTIC ACID” (priority 2015, published 2017).
Values joined by “and” are separate entries in the source; they are usually repeats but may differ in a detail not shown here. Equal entries are not always repeated. “Also recorded” adds a separate entry of the source.

How the values were obtained:
[1] = test system: Akt; experiment: western blot, phospho-Akt (Ser473)/total-Akt in skeletal muscle; format: in vivo, C57BL/6J mice; settings: HF diet-fed mice
From the text: (§1) FIG. 4A is a western blot analysis showing the protein contents of GLUT4 in skeletal muscle, and phospho-AMPK (Thr172) and total-AMPK (Thr172) in both liver tissue and skeletal muscle, and phospho-Akt (Ser473) and total-Akt (Ser473) in skeletal muscle of the mice receiving tormentic acid (PTA) by oral gavage for 4 weeks; and
(§2) FIG. 4B is a diagram showing the protein contents of GLUT4 in skeletal muscle, the expression levels of phospho-AMPK (Thr172) to total AMPK in both liver tissue and skeletal muscle, and quantified results from FIG. 4A for the phosphorylation status of Akt (p-Akt normalized to total Akt (pAkt/Akt)) in skeletal muscle of the mice receiving tormentic acid (PTA) by oral gavage for 4 weeks.
(§3) For part 2, C57BL/6J mice (4 weeks old) were obtained from the National Laboratory Animal Breeding and Research Center. The mice were divided randomly into two groups after 7 days acclimation. The control (CON) group (n=9) was fed a low-fat diet (diet 12450B, Research Diets, Inc., New Brunswick, N.J., USA), whereas the experimental group was fed a 45% high-fat diet (diet 12451, Research Diets, Inc.) for 12 weeks. The compositions of the experimental diets are given in previous studies. […]

[2] = test system: AMPK; experiment: western blot, phospho-AMPK (Thr172)/total-AMPK in liver tissue and skeletal muscle; format: in vivo, C57BL/6J mice; settings: HF diet-fed mice
From the text: as §1, §2
(§4) For part 2, C57BL/6J mice (4 weeks old) were obtained from the National Laboratory Animal Breeding and Research Center. The mice were divided randomly into two groups after 7 days acclimation. The control (CON) group (n=9) was fed a low-fat diet (diet 12450B, Research Diets, Inc., New Brunswick, N.J., USA), whereas the experimental group was fed a 45% high-fat diet (diet 12451, Research Diets, Inc.) for 12 weeks. The compositions of the experimental diets are given in previous studies. After 8 weeks, the high-fat treated mice were randomly subdivided into four groups (n=9) including PTA1 (0.06 g/kg/day), PTA2 (0.12 g/kg/day) or rosiglitazone (Rosi; 1% methylcellulose, 10 mg/kg body weight) (GlaxoSmithKline) or vehicle and treated by oral gavage one time per day from the 9th to 12th weeks, while the mice were still on the high-fat diet, whereas the CON and high-fat control (HF) mice were treated with vehicle only. At the end, food was withheld from the animals (from 10 p.m. to 10 a.m.). The next day, the mice were sacrificed for blood and tissue collection and analysis. Livers, skeletal muscles, and white adipose tissues (WATs) (including epididymal, mesenteric, and retroperitoneal WAT) were weighed and excised, followed by immediate freezing, and kept at −80° C. for target gene analysis. Heparin (30 units/mL) (Sigma) was added to blood samples. Plasma samples were collected within 30 min by centrifugation at 1600 g for 15 min at 4° C. Plasma was obtained for insulin and leptin assay.

[3] = test system: PPARα; experiment: semiquantitative RT-PCR, liver PPARα mRNA; format: in vivo, C57BL/6J mice; settings: HF diet-fed mice, normalized to GAPDH
From the text: as §3
(§5) Total RNA from the liver tissue was isolated with a Trizol reagent (Molecular Research Center, Inc., Cincinnati, Ohio, USA) according to the manufacturer's directions. The integrity of the extracted total RNA was examined by 2% agarose gel electrophoresis, and the RNA concentration was determined by ultraviolet (UV) light absorbency at 260 and 280 nm (spectrophotometer U-2800A, Hitachi). […] The relative density of the band was evaluated using AlphaDigiDoc 1201 software (Alpha Innotech Co., San Leandro, Calif., USA). All of the measured PCR products were normalized to the amount of cDNA of GAPDH in each sample. […]

[4] = test system: DGAT2; experiment: semiquantitative RT-PCR, liver DGAT2 mRNA; format: in vivo, C57BL/6J mice; settings: HF diet-fed mice, normalized to GAPDH, vs HF group
From the text: as §3, §5

[5] = test system: SREBP1c; experiment: semiquantitative RT-PCR, liver SREBP1c mRNA; format: in vivo, C57BL/6J mice; settings: HF diet-fed mice, normalized to GAPDH, vs HF group
From the text: as §3, §5

[6] = oral glucose tolerance test (OGTT) in normal mice; format: in vivo; settings: 12 h fasted ICR mice; 0.2, 0.4 and 0.8 g/kg orally 30 min before oral glucose load 1 g/kg; from 30 to 120 min
Experimental: For part 1, an oral glucose tolerance test (OGTT) was performed on 12 h fasted ICR mice (n=5) that were allowed access to 0.2, 0.4, and 0.8 g/kg PTA or an equivalent amount of vehicle (water), which were given orally 30 min before an oral glucose load (1 g/kg body wt). The control group was given glucose, whereas the normal group was not. Blood samples were collected from the retro-orbital sinus of fasted mice at the time of the glucose administration (0) and every 30 min until 120 min after glucose administration.

[7] = test system: G6 Pase; experiment: semiquantitative RT-PCR, liver G6 Pase mRNA; format: in vivo, C57BL/6J mice; settings: HF diet-fed mice, normalized to GAPDH, vs HF group
From the text: as §3, §5

[8] = hepatic lipids in high-fat diet-fed mice; format: in vivo; settings: HF diet-fed C57BL/6J mice, mean ± SE, n=9
From the text: as §4
Hepatic lipids were extracted using a previously described protocol. For the hepatic lipid extraction, 0.375 g liver samples were homogenized with 1 mL of distilled water for 5 min. Finally, the dried pellet was resuspended in 0.5 mL of ethanol and analyzed using a triglycerides kit as used for serum lipids.

[9] = test system: apo C-III; experiment: semiquantitative RT-PCR, liver apo C-III mRNA; format: in vivo, C57BL/6J mice; settings: HF diet-fed mice, normalized to GAPDH, vs HF group
From the text: as §3, §5

[10] = test system: GLUT4; experiment: western blot, GLUT4 protein in skeletal muscle; format: in vivo, C57BL/6J mice; settings: HF diet-fed mice
From the text: as §1, §2, §3

[11] = PTA1 0.06 g/kg/day oral gavage 4 weeks
[12] = PTA2 0.12 g/kg/day oral gavage 4 weeks

For `C[C@@H]1CC[C@]2(C(=O)O)CC[C@]3(C)C(=CC[C@@H]4[C@@]5(C)C[C@@H](O)[C@H](O)C(C)(C)[C@@H]5CC[C@]43C)[C@@H]2[C@]1(C)O` [PTA, tormentic acid], the “expression levels of phospho-Akt/total-Akt” value ([1]; PTA1 0.06 g/kg/day 4 weeks) was “significantly increased”, the “expression levels of phospho-Akt/total-Akt” value ([1]; PTA2 0.12 g/kg/day 4 weeks) was “significantly increased” and the “expression levels of phospho-AMPK/total-AMPK” value ([2]; liver tissue, PTA1 0.06 g/kg/day 4 weeks) was “significantly increase”. For the same compound, the “expression levels of phospho-AMPK/total-AMPK” value ([2]; liver tissue, PTA2 0.12 g/kg/day 4 weeks) was “significantly increase”, the “expression levels of phospho-AMPK/total-AMPK” value ([2]; skeletal muscle, PTA1 0.06 g/kg/day 4 weeks) was “significantly increase” and the “expression levels of phospho-AMPK/total-AMPK” value ([2]; skeletal muscle, PTA2 0.12 g/kg/day 4 weeks) was “significantly increase”. For the same compound, the “mRNA levels of PPARα in liver” value ([3]; PTA1 0.06 g/kg/day 4 weeks) was “increased”, the “mRNA levels of PPARα in liver” value ([3]; PTA2 0.12 g/kg/day 4 weeks) was “increased” and the “mRNA level of DGAT2 in liver” value ([4]; PTA1 0.06 g/kg/day 4 weeks) was “significantly decrease”. The “mRNA level of DGAT2 in liver” value ([4]; PTA2 0.12 g/kg/day 4 weeks) was “significantly decrease”, the “mRNA level of SREBP1c in liver” value ([5]; PTA1 0.06 g/kg/day 4 weeks) was “significantly decrease” and the “mRNA level of SREBP1c in liver” value ([5]; PTA2 0.12 g/kg/day 4 weeks) was “significantly decrease”. For the same compound, the “levels of blood glucose (OGTT)” value [6] was “decreased”, the “mRNA level of G6 Pase in liver” value ([7]; PTA1 0.06 g/kg/day 4 weeks) was “significantly decrease” and the “mRNA level of G6 Pase in liver” value ([7]; PTA2 0.12 g/kg/day 4 weeks) was “significantly decrease”. For the same compound, the “Liver lipids: Total lipid” value [8, 11] was 80.1 ± 4.6 mg/g, the “Liver lipids: Triacylglycerol” value [8, 11] was 51.7 ± 5.1 µmol/g and the “Liver lipids: Total lipid” value [8, 12] was 68.2 ± 5.9 mg/g. The “Liver lipids: Triacylglycerol” value [8, 12] was 35.2 µmol/g and 35.2 ± 4.9 µmol/g, the “mRNA level of apo C-III in liver” value ([9]; PTA1 0.06 g/kg/day 4 weeks) was “significantly decrease” and the “mRNA level of apo C-III in liver” value ([9]; PTA2 0.12 g/kg/day 4 weeks) was “significantly decrease”. For the same compound, the “membrane protein levels of GLUT4” value ([10]; PTA1 0.06 g/kg/day 4 weeks) was “significantly increased” and the “membrane protein levels of GLUT4” value ([10]; PTA2 0.12 g/kg/day 4 weeks) was “significantly increased; also recorded: marked increases”.
